Data from ChEMBL document CHEMBL5465560, “Selectivity Literature for EUbOPEN Chemogenomic Library” (2024).
Values belong to the compound of their own block, whether it stands above or below them.

Tests used:
[1] = biological target: Mitogen-activated protein kinase kinase kinase 11 (Homo sapiens) (UniProt Q16584); assay: Selectivity interaction (KinomeScan (DiscoverX)) EUB0001049a MAP3K11; settings: at 1 µM
[2] = biological target: Serine/threonine-protein kinase VRK2 (Homo sapiens) (UniProt Q86Y07); assay: Selectivity interaction (Ambit KINOMEscan and KiNATiv profiling in Jurkat cells) EUB0000090b VRK2; format: cell-based; settings: at 1 µM
Chain of Serine/threonine-protein kinase VRK2 (Homo sapiens) (Q86Y07 whole entry): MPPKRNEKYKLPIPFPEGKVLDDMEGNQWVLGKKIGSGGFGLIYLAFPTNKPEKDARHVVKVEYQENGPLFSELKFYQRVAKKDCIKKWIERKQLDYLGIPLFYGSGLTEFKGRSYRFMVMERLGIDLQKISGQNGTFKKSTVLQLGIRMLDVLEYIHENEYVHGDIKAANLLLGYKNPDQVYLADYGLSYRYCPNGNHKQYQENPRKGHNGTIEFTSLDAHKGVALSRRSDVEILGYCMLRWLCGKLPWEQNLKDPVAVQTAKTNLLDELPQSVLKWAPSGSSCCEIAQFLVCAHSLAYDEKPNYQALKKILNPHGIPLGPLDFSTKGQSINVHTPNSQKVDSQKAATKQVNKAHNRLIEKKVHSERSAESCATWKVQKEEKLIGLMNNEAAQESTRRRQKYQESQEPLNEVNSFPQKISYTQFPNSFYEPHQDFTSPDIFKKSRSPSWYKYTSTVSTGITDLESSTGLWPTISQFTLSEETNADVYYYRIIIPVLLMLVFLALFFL

[3] = biological target: NT-3 growth factor receptor (Homo sapiens, UniProt Q16288); assay: Selectivity interaction (Ambit KINOMEscan and KiNATiv profiling in Jurkat cells) EUB0000090b NTRK3; format: cell-based; settings: at 1 µM
Chain of NT-3 growth factor receptor (Q16288 32-839 limits assumed): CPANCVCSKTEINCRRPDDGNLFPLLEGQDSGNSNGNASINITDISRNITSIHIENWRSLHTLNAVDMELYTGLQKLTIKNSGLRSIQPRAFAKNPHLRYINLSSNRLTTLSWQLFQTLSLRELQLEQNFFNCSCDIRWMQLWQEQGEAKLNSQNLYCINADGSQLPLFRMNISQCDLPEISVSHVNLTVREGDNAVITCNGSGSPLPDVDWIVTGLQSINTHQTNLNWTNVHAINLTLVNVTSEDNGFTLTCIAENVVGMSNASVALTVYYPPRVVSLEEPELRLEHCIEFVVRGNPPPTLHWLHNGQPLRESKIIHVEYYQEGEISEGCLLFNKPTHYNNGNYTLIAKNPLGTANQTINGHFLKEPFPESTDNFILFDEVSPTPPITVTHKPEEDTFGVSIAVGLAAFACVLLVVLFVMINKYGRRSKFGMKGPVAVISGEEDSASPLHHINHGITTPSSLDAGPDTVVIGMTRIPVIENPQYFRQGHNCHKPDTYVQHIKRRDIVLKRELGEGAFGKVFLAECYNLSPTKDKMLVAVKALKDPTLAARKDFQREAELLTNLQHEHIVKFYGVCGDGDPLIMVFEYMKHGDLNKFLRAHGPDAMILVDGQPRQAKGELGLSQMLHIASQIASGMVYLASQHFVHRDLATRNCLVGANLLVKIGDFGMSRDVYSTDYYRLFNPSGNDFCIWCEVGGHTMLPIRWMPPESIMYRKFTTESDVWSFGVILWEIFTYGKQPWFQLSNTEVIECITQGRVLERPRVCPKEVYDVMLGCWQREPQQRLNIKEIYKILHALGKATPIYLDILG

[4] = biological target: Ribosomal protein S6 kinase alpha-1 (Homo sapiens, UniProt Q15418); assay: Selectivity interaction (ActivX KiNativ screen (kinase selectivity in THP-1 cell lysates)) EUB0000639a RPS6KA1; format: subcellular; settings: lysate, at 1 µM
Chain of Ribosomal protein S6 kinase alpha-1 (Q15418 whole entry): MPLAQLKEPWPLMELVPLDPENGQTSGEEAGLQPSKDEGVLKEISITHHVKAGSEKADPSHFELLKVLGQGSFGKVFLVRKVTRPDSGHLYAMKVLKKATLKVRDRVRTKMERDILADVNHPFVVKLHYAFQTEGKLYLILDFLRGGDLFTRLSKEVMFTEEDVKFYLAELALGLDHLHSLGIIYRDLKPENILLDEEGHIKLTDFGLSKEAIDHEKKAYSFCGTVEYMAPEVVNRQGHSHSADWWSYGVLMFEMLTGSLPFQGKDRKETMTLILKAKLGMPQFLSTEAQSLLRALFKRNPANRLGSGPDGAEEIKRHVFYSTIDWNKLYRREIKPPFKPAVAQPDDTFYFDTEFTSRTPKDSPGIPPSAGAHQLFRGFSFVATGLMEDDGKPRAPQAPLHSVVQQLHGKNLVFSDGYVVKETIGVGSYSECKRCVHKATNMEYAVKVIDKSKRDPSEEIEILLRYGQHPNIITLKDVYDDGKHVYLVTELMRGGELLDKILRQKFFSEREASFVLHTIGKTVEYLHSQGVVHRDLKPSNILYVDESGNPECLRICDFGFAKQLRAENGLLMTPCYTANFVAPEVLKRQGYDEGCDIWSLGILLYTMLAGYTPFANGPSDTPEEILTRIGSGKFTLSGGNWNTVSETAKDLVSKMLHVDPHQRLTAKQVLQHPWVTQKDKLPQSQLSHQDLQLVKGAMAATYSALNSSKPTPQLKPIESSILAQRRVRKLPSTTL

Aurora kinase B = Aurora kinase B (Homo sapiens, UniProt Q96GD4); assay: Selectivity interaction (KinomeScan (DiscoverX)) EUB0001550a AURKB; settings: at 1 µM
Chain of Aurora kinase B (Q96GD4 whole entry): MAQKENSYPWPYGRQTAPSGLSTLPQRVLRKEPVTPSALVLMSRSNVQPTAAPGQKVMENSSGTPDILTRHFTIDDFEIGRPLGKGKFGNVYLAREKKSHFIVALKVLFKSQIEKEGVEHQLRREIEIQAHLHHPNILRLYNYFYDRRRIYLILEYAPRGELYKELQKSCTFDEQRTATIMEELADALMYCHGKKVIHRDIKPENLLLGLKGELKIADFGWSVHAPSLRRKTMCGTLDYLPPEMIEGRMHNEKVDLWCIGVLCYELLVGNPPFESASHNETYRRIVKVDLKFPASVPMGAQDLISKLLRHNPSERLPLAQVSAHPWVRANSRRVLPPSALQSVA

Ephrin type-A receptor 4 = Ephrin type-A receptor 4 (Homo sapiens, UniProt P54764); assay: Selectivity interaction (ProQinase) EUB0000171b EPHA4
Chain of Ephrin type-A receptor 4 (P54764 whole entry): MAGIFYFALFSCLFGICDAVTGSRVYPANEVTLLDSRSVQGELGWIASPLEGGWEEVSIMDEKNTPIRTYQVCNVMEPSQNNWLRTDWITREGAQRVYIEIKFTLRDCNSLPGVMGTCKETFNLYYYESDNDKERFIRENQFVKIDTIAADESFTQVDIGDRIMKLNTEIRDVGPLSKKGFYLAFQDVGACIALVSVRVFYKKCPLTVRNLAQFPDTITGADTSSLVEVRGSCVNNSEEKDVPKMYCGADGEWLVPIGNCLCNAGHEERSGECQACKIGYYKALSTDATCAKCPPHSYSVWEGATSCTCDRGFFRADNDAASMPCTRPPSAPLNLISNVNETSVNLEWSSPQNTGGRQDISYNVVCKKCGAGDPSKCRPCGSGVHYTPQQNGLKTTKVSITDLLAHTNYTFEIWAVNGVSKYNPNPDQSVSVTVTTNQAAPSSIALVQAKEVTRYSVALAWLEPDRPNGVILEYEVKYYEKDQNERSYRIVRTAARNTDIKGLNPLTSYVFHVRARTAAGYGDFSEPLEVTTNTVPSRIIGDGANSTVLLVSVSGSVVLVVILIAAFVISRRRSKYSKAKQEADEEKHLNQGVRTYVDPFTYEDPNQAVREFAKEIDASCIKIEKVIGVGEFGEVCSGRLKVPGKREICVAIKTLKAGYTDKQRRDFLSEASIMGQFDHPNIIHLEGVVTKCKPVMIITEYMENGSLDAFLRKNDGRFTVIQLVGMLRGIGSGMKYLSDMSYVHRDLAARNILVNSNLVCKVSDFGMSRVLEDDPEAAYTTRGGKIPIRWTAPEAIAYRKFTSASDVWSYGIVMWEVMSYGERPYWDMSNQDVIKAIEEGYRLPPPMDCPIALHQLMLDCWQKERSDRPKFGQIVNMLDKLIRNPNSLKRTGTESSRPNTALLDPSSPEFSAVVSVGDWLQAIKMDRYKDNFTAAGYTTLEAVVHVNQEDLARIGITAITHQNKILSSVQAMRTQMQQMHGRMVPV

[5] = biological target: T1, Mitogen-activated protein kinase kinase kinase 5 (Homo sapiens) (UniProt Q99683); assay: Selectivity interaction (Upstate Kinase Profiler service (Millipore)) EUB0000056c MAP3K5; settings: at 1 µM
T1 sequence (whole entry): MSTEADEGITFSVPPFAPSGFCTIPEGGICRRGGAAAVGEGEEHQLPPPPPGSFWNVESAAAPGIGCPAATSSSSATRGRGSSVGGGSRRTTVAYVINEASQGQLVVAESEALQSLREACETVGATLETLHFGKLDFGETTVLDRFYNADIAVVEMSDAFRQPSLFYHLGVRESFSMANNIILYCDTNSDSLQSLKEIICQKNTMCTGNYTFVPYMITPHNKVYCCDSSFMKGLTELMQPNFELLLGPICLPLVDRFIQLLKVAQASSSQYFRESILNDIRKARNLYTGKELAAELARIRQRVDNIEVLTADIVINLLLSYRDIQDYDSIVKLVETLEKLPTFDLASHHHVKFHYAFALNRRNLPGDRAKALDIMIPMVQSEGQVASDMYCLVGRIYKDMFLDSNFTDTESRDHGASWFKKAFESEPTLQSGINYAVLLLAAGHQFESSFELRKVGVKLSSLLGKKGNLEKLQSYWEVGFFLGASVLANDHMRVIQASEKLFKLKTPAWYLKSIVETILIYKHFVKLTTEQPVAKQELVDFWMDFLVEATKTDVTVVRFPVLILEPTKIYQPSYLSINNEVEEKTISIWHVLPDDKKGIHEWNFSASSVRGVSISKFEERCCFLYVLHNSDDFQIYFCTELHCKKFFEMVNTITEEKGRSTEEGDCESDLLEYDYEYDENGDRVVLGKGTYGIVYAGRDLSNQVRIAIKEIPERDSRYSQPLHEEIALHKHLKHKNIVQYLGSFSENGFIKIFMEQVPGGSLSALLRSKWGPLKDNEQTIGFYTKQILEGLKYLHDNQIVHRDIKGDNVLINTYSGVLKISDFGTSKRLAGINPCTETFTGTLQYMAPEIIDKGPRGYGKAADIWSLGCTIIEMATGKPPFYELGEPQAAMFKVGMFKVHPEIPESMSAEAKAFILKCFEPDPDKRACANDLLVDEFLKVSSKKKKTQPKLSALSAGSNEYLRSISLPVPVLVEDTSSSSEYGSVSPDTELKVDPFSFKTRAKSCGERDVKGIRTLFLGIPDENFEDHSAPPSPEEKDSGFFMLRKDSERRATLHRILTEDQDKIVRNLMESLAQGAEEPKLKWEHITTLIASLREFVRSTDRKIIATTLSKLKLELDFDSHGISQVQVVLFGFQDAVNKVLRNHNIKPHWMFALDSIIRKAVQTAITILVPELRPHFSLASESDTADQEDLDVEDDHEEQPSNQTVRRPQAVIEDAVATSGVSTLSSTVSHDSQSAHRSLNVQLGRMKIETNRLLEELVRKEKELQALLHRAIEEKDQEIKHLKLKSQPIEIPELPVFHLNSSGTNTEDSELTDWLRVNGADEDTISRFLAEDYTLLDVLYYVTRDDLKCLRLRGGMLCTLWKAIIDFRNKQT

[6] = biological target: T2, Tyrosine-protein kinase Tec (Homo sapiens) (UniProt P42680); assay: Selectivity interaction (KinomeScan (DiscoverX)) EUB0000655a TEC; settings: at 10 µM
T2 sequence (whole entry): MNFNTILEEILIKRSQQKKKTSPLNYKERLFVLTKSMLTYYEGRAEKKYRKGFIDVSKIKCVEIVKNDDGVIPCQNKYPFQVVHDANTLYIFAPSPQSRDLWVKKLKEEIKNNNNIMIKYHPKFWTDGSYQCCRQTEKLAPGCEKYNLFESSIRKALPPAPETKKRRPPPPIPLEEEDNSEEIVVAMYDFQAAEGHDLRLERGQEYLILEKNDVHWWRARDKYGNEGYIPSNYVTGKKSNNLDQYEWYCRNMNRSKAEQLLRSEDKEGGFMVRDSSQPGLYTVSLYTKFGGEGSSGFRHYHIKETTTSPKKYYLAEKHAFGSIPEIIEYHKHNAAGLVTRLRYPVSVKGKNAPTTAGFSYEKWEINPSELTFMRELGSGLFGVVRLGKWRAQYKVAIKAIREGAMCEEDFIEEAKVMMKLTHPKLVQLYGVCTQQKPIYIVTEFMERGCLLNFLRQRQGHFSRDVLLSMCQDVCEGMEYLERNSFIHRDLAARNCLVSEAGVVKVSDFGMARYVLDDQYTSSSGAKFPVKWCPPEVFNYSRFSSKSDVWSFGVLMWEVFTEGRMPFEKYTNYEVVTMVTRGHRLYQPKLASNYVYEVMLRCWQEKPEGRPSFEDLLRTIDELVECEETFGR

Chain of Mitogen-activated protein kinase kinase kinase 11 (Homo sapiens) (Q16584 whole entry, looked up): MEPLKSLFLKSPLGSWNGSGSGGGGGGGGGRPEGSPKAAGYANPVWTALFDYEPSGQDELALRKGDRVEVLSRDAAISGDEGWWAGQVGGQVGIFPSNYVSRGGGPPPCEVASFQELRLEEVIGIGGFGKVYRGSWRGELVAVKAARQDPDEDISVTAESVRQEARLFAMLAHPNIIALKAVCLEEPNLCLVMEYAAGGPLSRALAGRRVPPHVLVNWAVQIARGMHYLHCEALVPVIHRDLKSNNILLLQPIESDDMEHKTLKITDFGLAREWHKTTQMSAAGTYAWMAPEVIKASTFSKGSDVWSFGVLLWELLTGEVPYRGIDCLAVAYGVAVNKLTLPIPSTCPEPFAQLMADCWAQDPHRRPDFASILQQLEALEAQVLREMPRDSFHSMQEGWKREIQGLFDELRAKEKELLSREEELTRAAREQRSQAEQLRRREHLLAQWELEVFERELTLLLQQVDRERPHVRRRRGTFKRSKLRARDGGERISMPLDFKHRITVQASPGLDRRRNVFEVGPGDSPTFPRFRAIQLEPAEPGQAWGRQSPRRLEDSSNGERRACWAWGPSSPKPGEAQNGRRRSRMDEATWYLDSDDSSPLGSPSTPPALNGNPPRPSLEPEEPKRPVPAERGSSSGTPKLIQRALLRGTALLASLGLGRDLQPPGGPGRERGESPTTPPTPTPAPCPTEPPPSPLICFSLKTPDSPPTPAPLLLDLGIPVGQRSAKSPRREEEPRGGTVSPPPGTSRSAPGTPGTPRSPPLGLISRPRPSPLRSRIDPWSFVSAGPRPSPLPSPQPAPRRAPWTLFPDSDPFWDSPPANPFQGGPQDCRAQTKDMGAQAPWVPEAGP

Compound: COc1cc(Nc2nc(C)cc(-c3cnn4nc(OC)ccc34)n2)cc(C(F)(F)F)c1
% of control [1]: 79%

Compound: CN(C)C/C=C/C(=O)Nc1ccc(C(=O)N2CCCC(Nc3ncc(Cl)c(-c4c[nH]c5ccccc45)n3)C2)cc1 (centres undefined)
% of control [2]: 97% | % of control [3]: 81%

% of inhibition [4]: 8.6%
Compound: CC[C@@H]1[C@H](F)C(=O)N[C@@H]1COc1nccc2cc(C(N)=O)c(OC)cc12 [ZIMLOVISERTIB]

% of control (Aurora kinase B): 23%
Compound: CN(C)CC#Cc1ccc2[nH]c3c(c2c1)-c1nc(N)ncc1CCC3

% of control (Ephrin type-A receptor 4; at 1 µM): 93% | % of control (Ephrin type-A receptor 4; at 5 µM): 78%
Compound: C=CC(=O)Nc1cccc(C(=O)Nc2ccc(Nc3cc(-c4[nH]c(SC)nc4C)ccn3)cc2)c1

% of inhibition [5]: 90%
Compound: Cc1ccc(-c2ccc3c(ccc4sc5c(c43)NC[C@@H](C)NC5=O)n2)cn1

Compound: CN(C)CCOc1ccc(-c2nc(-c3ccncc3)c(-c3ccc4c(c3)CC/C4=N\O)[nH]2)cc1
% of control [6]: 91%
